US11319315B2, “Cyclohexyl acid triazole azoles as LPA antagonists” (BRISTOL-MYERS SQUIBB COMPANY, priority 2017, dated 2022)

biological target: T1, human LPA1 (Homo sapiens, UniProt Q92633); assay: LPA1 functional antagonist assay (LPA-induced calcium flux in CHO cells overexpressing human LPA1); assay type: cell-based; details: inhibition of calcium flux induced by 10 nM LPA, CHO cells overexpressing human LPA1; read-out: hLPA1 IC50
T1 construct: expressed in transfected cells; host or cells: Chinese hamster ovary (CHO) cells
Procedure, shortened: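 CHO cells overexpressing human LPA1, dye-loaded 30 min at 37 °C, then given compound (0.08 nM–5 μM final, 0.5% DMSO) in HBSS/20 mM HEPES/0.1% fatty-acid-free BSA for 20 min at room temperature before 10 nM LPA. IC50 as 50% inhibition of LPA-evoked calcium flux, 4-parameter logistic fit.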

T1 sequence (Q92633 whole entry): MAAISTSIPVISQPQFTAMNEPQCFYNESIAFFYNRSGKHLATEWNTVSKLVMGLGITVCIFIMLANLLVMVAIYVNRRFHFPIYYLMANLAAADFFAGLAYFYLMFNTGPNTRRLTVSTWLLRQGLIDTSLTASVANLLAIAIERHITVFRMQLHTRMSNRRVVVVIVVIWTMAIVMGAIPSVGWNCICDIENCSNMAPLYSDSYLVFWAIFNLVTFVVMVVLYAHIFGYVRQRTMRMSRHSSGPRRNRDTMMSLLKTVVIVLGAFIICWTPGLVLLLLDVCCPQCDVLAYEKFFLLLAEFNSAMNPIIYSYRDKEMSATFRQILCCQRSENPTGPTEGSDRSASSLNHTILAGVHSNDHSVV

| Compound | IC50 [nM] |
| --- | --- |
| Cc1nc(-c2nnn(C)c2CNc2ncn(C(C)C)n2)ccc1O[C@H]1CCC[C@H](C(=O)O)C1 [Example 126] | 1490 |
| CCCc1nsc(OCc2c(-c3ccc(O[C@H]4CCC[C@H](C(=O)O)C4)c(C)n3)nnn2C)n1 [Example 127] | 425 |
| Cc1nc(-c2nnn(C)c2COc2nc(C(C)C)ns2)ccc1O[C@H]1CCC[C@H](C(=O)O)C1 [Example 128] | 98 |
| CCc1nc(OCc2c(-c3ccc(O[C@H]4CCC[C@H](C(=O)O)C4)c(C)n3)nnn2C)no1 [Example 129] | 41 |
| Cc1nc(-c2nnn(C)c2COc2noc(C(C)C)n2)ccc1O[C@H]1CCC[C@H](C(=O)O)C1 [Example 130] | 26 |
| CCCc1nc(OCc2c(-c3ccc(O[C@H]4CCC[C@H](C(=O)O)C4)c(C)n3)nnn2C)no1 [Example 131] | 19 |
| CCCc1nnc(OCc2c(-c3ccc(O[C@H]4CCC[C@H](C(=O)O)C4)c(C)n3)nnn2C)s1 [Example 132] | 97 |
| Cc1nc(-c2nnn(C)c2COc2cc(-c3ccccn3)on2)ccc1O[C@H]1CCC[C@H](C(=O)O)C1 [Example 133] | 208 |
| Cc1nc(-c2nnn(C)c2COc2noc(C3CC3)n2)ccc1O[C@H]1CCC[C@H](C(=O)O)C1 [Example 134] | 25 |
| Cc1nc(-c2nnn(C)c2COc2ncn(CC(C)C)n2)ccc1O[C@H]1CCC[C@H](C(=O)O)C1 [Example 135, (1 S,3 S)-3-((6-(5-(((1-Isobutyl-1H-1,2,4-triazol-3-yl)oxy)methyl)-1-methyl-1H-1,2,3-triazol-4-yl)-2-methylpyridin-3-yl)oxy)cyclohexane-1-carboxylic acid] | 32 |
| Cc1nc(-c2nnn(C)c2COc2nnn(CC(C)C)n2)ccc1O[C@H]1CCC[C@H](C(=O)O)C1 [Example 136, (1S,3S)-3-((6-(5-(((2-Isobutyl-2H-tetrazol-5-yl)oxy)methyl)-1-methyl-1H-1,2,3-triazol-4-yl)-2-methylpyridin-3-yl)oxy)cyclohexane-1-carboxylic acid] | 20 |
| CC(C)c1nc(NCc2c(-c3ccc(O[C@H]4CCC[C@H](C(=O)O)C4)cn3)nnn2C)ns1 [Example 137] | 320 |
| CCCc1cnc(NCc2c(-c3ccc(O[C@H]4CCC[C@H](C(=O)O)C4)c(C)n3)nnn2C)o1 [Example 138] | 36 |
| Cc1nc(-c2nnn(C)c2CNc2ncc(C(C)C)o2)ccc1O[C@H]1CCC[C@H](C(=O)O)C1 [Example 139] | 38 |
| Cc1nc(-c2nnn(C)c2COc2ncn(CC3CC3)n2)ccc1O[C@H]1CCC[C@H](C(=O)O)C1 [Example 140] | 57 |
| CCCCn1cnc(OCc2c(-c3ccc(O[C@H]4CCC[C@H](C(=O)O)C4)c(C)n3)nnn2C)n1 [Example 141] | 71 |
| CCC(C)n1cnc(OCc2c(-c3ccc(O[C@H]4CCC[C@H](C(=O)O)C4)c(C)n3)nnn2C)n1 (some centres unmarked) [Example 142] | 509 |
| Cc1nc(-c2nnn(C)c2COc2nnn(CC3CC3)n2)ccc1O[C@H]1CCC[C@H](C(=O)O)C1 [Example 143] | 24 |
| Cc1nc(-c2nnn(C)c2COc2nnnn2CC(C)C)ccc1O[C@H]1CCC[C@H](C(=O)O)C1 [Example 144] | 94 |
| Cc1nc(-c2nnn(C)c2CNc2noc(COC(C)C)n2)ccc1O[C@H]1CCC[C@H](C(=O)O)C1 [Example 145] | 31 |
| COCCCc1nc(NCc2c(-c3ccc(O[C@H]4CCC[C@H](C(=O)O)C4)c(C)n3)nnn2C)no1 [Example 146] | 103 |
| CCOCc1nc(NCc2c(-c3ccc(O[C@H]4CCC[C@H](C(=O)O)C4)c(C)n3)nnn2C)no1 [Example 147] | 45 |

| Compound | IC50 [nM] |
| --- | --- |
| Cc1nc(-c2nnn(C)c2CNc2noc(C3(F)CCC3)n2)ccc1O[C@H]1CCC[C@H](C(=O)O)C1 [Example 148] | 19 |
| CCC(C)n1cnc(NCc2c(-c3ccc(O[C@H]4CCC[C@H](C(=O)O)C4)c(C)n3)nnn2C)n1 (some centres unmarked) [Example 149] | 221 |
| CCCCn1cnc(NCc2c(-c3ccc(O[C@H]4CCC[C@H](C(=O)O)C4)c(C)n3)nnn2C)n1 [Example 150] | 68.2 |
| Cc1nc(-c2nnn(C)c2CNc2noc(C3CCOC3)n2)ccc1O[C@H]1CCC[C@H](C(=O)O)C1 (some centres unmarked) [Example 151] | 114 |
| Cc1nc(-c2nnn(C)c2CNc2ncn(CC3CC3)n2)ccc1O[C@H]1CCC[C@H](C(=O)O)C1 [Example 152] | 179 |
| Cc1nc(-c2nnn(C)c2CNc2noc(C3CC(F)(F)C3)n2)ccc1O[C@H]1CCC[C@H](C(=O)O)C1 [Example 153] | 46.1 |
| Cc1nc(-c2nnn(C)c2CNc2noc(C3(C)CC3)n2)ccc1O[C@H]1CCC[C@H](C(=O)O)C1 [Example 154] | 441 |
| Cc1nc(-c2nnn(C)c2CNc2noc(C(C)(C)C)n2)ccc1O[C@H]1CCC[C@H](C(=O)O)C1 [Example 155] | 85 |
| Cc1nc(-c2nnn(C)c2CNc2nc(CC3CCC3)no2)ccc1O[C@H]1CCC[C@H](C(=O)O)C1 [Example 156] | 29 |
| Cc1nc(-c2nnn(C)c2CNc2nc(CC(C)C)no2)ccc1O[C@H]1CCC[C@H](C(=O)O)C1 [Example 157] | 53 |
| Cc1nc(-c2nnn(C)c2CNc2nc(CCC(C)C)no2)ccc1O[C@H]1CCC[C@H](C(=O)O)C1 [Example 158] | 21 |
| Cc1nc(-c2nnn(C)c2CNc2noc(CCC3CC3)n2)ccc1O[C@H]1CCC[C@H](C(=O)O)C1 [Example 165] | 6 |
| Cc1nc(-c2nnn(C)c2CNc2noc(CCC3CCC3)n2)ccc1O[C@H]1CCC[C@H](C(=O)O)C1 [Example 166] | 5 |
| Cc1nc(-c2nnn(C)c2CNc2noc(CCC(C)F)n2)ccc1O[C@H]1CCC[C@H](C(=O)O)C1 (some centres unmarked) [Example 167] | 16 |
| Cc1nc(-c2nnn(C)c2CNc2cc(C(C)C)no2)ccc1O[C@H]1CCC[C@H](C(=O)O)C1 [Example 168] | 84 |
| Cc1nc(-c2nnn(C)c2CNc2cc(C(C)(C)C)on2)ccc1O[C@H]1CCC[C@H](C(=O)O)C1 [Example 169] | 63 |
| CCC(C)Cc1nc(NCc2c(-c3ccc(O[C@H]4CCC[C@H](C(=O)O)C4)c(C)n3)nnn2C)no1 (some centres unmarked) [Example 170] | 18 |
| CCCC(C)c1nc(NCc2c(-c3ccc(O[C@H]4CCC[C@H](C(=O)O)C4)c(C)n3)nnn2C)no1 (some centres unmarked) [Example 171] | 12 |
| COCCc1nc(NCc2c(-c3ccc(O[C@H]4CCC[C@H](C(=O)O)C4)c(C)n3)nnn2C)no1 [Example 172] | 120 |
| Cc1nc(-c2nnn(C)c2CNc2noc(C3CC3)n2)ccc1O[C@H]1CCC[C@H](C(=O)O)C1 [Example 173] | 266 |
| Cc1nc(-c2nnn(C)c2CNc2noc(C(C)C)n2)ccc1O[C@H]1CCC[C@H](C(=O)O)C1 [Example 174] | 223 |
| Cc1nc(-c2nnn(C)c2CNc2noc(C3CCC3)n2)ccc1O[C@H]1CCC[C@H](C(=O)O)C1 [Example 175] | 20 |

| Compound | IC50 [nM] |
| --- | --- |
| Cc1nc(-c2nnn(C)c2CNc2noc(C3CCCC3)n2)ccc1O[C@H]1CCC[C@H](C(=O)O)C1 [Example 176] | 25.4 |
| Cc1nc(-c2nnn(C)c2CNc2noc(CCCC(F)(F)F)n2)ccc1O[C@H]1CCC[C@H](C(=O)O)C1 [Example 177] | 9.1 |
| CCC(C)c1nc(NCc2c(-c3ccc(O[C@H]4CCC[C@H](C(=O)O)C4)c(C)n3)nnn2C)no1 (some centres unmarked) [Example 178] | 27.4 |
| Cc1nc(-c2nnn(C)c2CNc2noc(CCC(C)(C)F)n2)ccc1O[C@H]1CCC[C@H](C(=O)O)C1 [Example 179] | 43.5 |
| Cc1nc(-c2nnn(C)c2CNc2noc(C3CC3C)n2)ccc1O[C@H]1CCC[C@H](C(=O)O)C1 (some centres unmarked) [Example 180] | 42.1 |
| Cc1nc(-c2nnn(C)c2CNc2noc(C3CC3(C)C)n2)ccc1O[C@H]1CCC[C@H](C(=O)O)C1 (some centres unmarked) [Example 181] | 24.1 |
| Cc1nc(-c2nnn(C)c2CNc2noc(C3CC3(C)C)n2)ccc1O[C@H]1CCC[C@H](C(=O)O)C1 (some centres unmarked) [Example 182] | 17 |
| Cc1nc(-c2nnn(C)c2CNc2noc(CCCCF)n2)ccc1O[C@H]1CCC[C@H](C(=O)O)C1 [Example 183] | 32 |
| Cc1nc(-c2nnn(C)c2CNc2noc(CCCF)n2)ccc1O[C@H]1CCC[C@H](C(=O)O)C1 [Example 184] | 74 |
| Cc1nc(-c2nnn(C)c2CNc2noc(C(C)C3CC3)n2)ccc1O[C@H]1CCC[C@H](C(=O)O)C1 (some centres unmarked) [Example 185] | 24 |
| Cc1nc(-c2nnn(C)c2CNc2noc(C3CCC(F)(F)C3)n2)ccc1O[C@H]1CCC[C@H](C(=O)O)C1 (some centres unmarked) [Example 186] | 79 |
| Cc1nc(-c2nnn(C)c2CNc2noc(CCC3(C)CC3)n2)ccc1O[C@H]1CCC[C@H](C(=O)O)C1 [Example 187] | 31 |
| Cc1nc(-c2nnn(C)c2CNc2noc(CCC(C)(F)F)n2)ccc1O[C@H]1CCC[C@H](C(=O)O)C1 [Example 188] | 42 |
| Cc1nc(-c2nnn(C)c2CNc2noc(C3CC(F)C3)n2)ccc1O[C@H]1CCC[C@H](C(=O)O)C1 (some centres unmarked) [Example 189] | 74 |
| Cc1nc(-c2nnn(C)c2CNc2noc(C3CC(F)C3)n2)ccc1O[C@H]1CCC[C@H](C(=O)O)C1 (some centres unmarked) [Example 190] | 55 |
| Cc1nc(-c2nnn(C)c2CNc2noc([C@H]3C[C@@](C)(F)C3)n2)ccc1O[C@H]1CCC[C@H](C(=O)O)C1 [Example 191] | 112 |
| Cc1nc(-c2nnn(C)c2CNc2noc([C@H]3C[C@](C)(F)C3)n2)ccc1O[C@H]1CCC[C@H](C(=O)O)C1 [Example 192] | 52 |
| Cc1nc(-c2nnn(C)c2CNc2noc(C(C)C3CC3)n2)ccc1O[C@H]1CCC[C@H](C(=O)O)C1 (some centres unmarked) [Example 193] | 33 |
| Cc1nc(-c2nnn(C)c2CNc2noc(C(C)C3CC3)n2)ccc1O[C@H]1CCC[C@H](C(=O)O)C1 (some centres unmarked) [Example 194] | 25 |
| Cc1nc(-c2nnn(C)c2CNc2noc(CC3CC3(F)F)n2)ccc1O[C@H]1CCC[C@H](C(=O)O)C1 (some centres unmarked) [Example 195] | 25 |
| Cc1nc(-c2nnn(C)c2CNc2noc(CC3CC3(F)F)n2)ccc1O[C@H]1CCC[C@H](C(=O)O)C1 (some centres unmarked) [Example 196] | 28 |
